For one data set, the target named is DNA polymerase γ (Homo sapiens (Human), UniProt P54098). Kind of data set: DNA polymerase γ single nucleotide incorporation (SNI) rate assay. The note with it: incorporation rate as a percentage relative to the corresponding natural dNTP; 50 μM analog. It is filed as biochemical. The procedure: Example 12: DNA Polymerase γ Single Nucleotide Incorporation (SNI) Rate Assay
The DNA polymerase (pol) γ SNI assay utilized an annealed ^32P labeled primer-template complex of D19 [5′-G TCC CTG TTC GGG CGC CAC-3′] and D36 A/G/T/C [3′-CGACCGTCCAGGGACAAGCCCGCG (TGT/CGT/ACG/GCG) ATC TCT-5′] where the templating base was chosen to base pair to the natural dNTP and analogs assayed. 20 nM DNA pol γ large subunit and 100 nM pol γ accessory subunit were preincubated on ice for 5 minutes and added to reaction mix containing 50 mM Tris-Cl pH 8.0, 5 mM DTT, 0.2 mg/mL bSA, 200 nM D19/D36 mer and 10 mM MgCl2. […] The substrate and the incorporation products, D19 and D20-28, were quantified using a Typhoon Trio Imager and Image Quant TL Software. The nucleotide incorporation rate was calculated in Prism by fitting the product formation using the single exponential equation: [D20]=A*(1−e−k*t), where [D20] represents the amount (in nM) of the elongated product formed, t represents the reaction time, k represents the observed rate, and A represents the amplitude of the exponential. […]

For another data set, the target named is DNA polymerase α (Homo sapiens (Human), UniProt P09884). Kind of data set: DNA polymerase α single nucleotide incorporation (SNI) rate assay. It is filed as biochemical. Particulars: incorporation rate as a percentage relative to the corresponding natural dNTP; 50 μM analog. The procedure:
Example 13: DNA Polymerase a Single Nucleotide Incorporation (SNI) Rate Assay
The DNA polymerase (pol) a SNI assay utilized an annealed ^32P labeled primer-template complex of D19 [5′-G TCC CTG TTC GGG CGC CAC-3′] and D36 A/G/T/C [3′-CGACCGTCCAGGGACAAGCCCGCG (TGT/CGT/ACG/GCG) ATC TCT-5′] where the templating base was chosen to base pair to the natural dNTP and analogs assayed. Reactions containing 50 mM Tris-Cl pH 8.0, 5 mM DTT, 0.2 mg/mL bSA, 200 nM D19/D36 mer and 10 mM MgCl2 and 5 nM DNA pol a were heated to 37° C. and initiated by addition of 50 μM (final) natural dNTP or analogs. At 0, 5, 10, 20, 40, and 60 min, 10 μL of the reaction mixture was removed and quenched with 10 μL of a gel loading buffer containing 100 mM EDTA, 80% formamide and bromophenol blue, and heated at 65° C. for 5 minutes. The samples were run on a 20% polyacrylamide gel (8 M urea) and the gel was exposed to a phosphorimager screen. The substrate and the incorporation products, D19 and D20-28, were quantified using a Typhoon Trio Imager and Image Quant TL Software. The nucleotide incorporation rate was calculated in Prism by fitting the product formation using the single exponential equation: [D20]=A*(1−e−k*t), where [D20] represents the amount (in nM) of the elongated product formed, t represents the reaction time, k represents the observed rate, and A represents the amplitude of the exponential. […]

Data set [1] in a line: Rhesus pharmacokinetic study, intravenous compound 7 (plasma and PBMC). The note with it: for Intracellular concentration in PBMC: LOQ 2.5 μM compound 7, 0.63 μM triphosphate. The procedure: Male Indian Origin Rhesus Monkeys were used for the pharmacokinetic studies. Studies were conducted under a protocol approved by IACUC. […] The intravenous dose was administered as an approximately 30-minute infusion, and after dose administration the dose apparatus was flushed with approximately 1 mL saline before removal from the animal. Food was returned 4 hours after dosing. […] The K2EDTA tubes were kept chilled at approximately 5° C. until centrifugation (4° C., 5 minutes, 2000×g) to collect plasma. Centrifugation began within 1 hour of collection. Plasma samples were harvested, placed in micronic tubes, and maintained on dry ice prior to storage at −70° C. until analysis by LC-MS/MS. […] The sodium citrate tubes were then gently inverted 3-4 times and stored upright at ambient temperature until centrifugation to collect PBMCs. Centrifugation began as soon as possible following collection, within 6 hours after collection. The PBMCs were separated by centrifugation (30 minutes at 1500×g-1800×g, 18-20° C.), washed once with ice cold 0.9% NaCl and treated with red blood cell lysis buffer (3.5 g ammonium chloride and 0.036 g ammonium carbonate in 500 mL ultrapure water, prepared before first blood collection) for 10 minutes at ambient temperature. Subsequently the cells were washed twice with ice cold 0.9% NaCl, the cell pellet resuspended in ice cold RIPA buffer (fortified with Pierce protease ad phosphatase inhibitor tablet), snap frozen in liquid nitrogen, and maintained at −70° C. until analysis by LC-MS/MS.

Data set [2] can be described thus: Rhesus pharmacokinetic study, oral compound 7 (plasma and PBMC). Particulars: for Intracellular concentration in PBMC: LOQ 0.16 μM compound 7, 0.04 μM triphosphate. The procedure:
The oral dose was administered via oral gavage, and after dose administration the dose apparatus was flushed with approximately 10 mL water before removal from the animal. Food was returned 4 hours after dosing. […] The K2EDTA tubes were kept chilled at approximately 5° C. until centrifugation (4° C., 5 minutes, 2000×g) to collect plasma. Centrifugation began within 1 hour of collection. Plasma samples were harvested, placed in micronic tubes, and maintained on dry ice prior to storage at −70° C. until analysis by LC-MS/MS. […] The sodium citrate tubes were then gently inverted 3-4 times and stored upright at ambient temperature until centrifugation to collect PBMCs. Centrifugation began as soon as possible following collection, within 6 hours after collection. The PBMCs were separated by centrifugation (30 minutes at 1500×g-1800×g, 18-20° C.), washed once with ice cold 0.9% NaCl and treated with red blood cell lysis buffer (3.5 g ammonium chloride and 0.036 g ammonium carbonate in 500 mL ultrapure water, prepared before first blood collection) for 10 minutes at ambient temperature. Subsequently, the cells were washed twice with ice cold 0.9% NaCl and the cell pellet maintained at −70° C. until analysis by LC-MS/MS.

DNA polymerase α, sequence (P09884 whole entry): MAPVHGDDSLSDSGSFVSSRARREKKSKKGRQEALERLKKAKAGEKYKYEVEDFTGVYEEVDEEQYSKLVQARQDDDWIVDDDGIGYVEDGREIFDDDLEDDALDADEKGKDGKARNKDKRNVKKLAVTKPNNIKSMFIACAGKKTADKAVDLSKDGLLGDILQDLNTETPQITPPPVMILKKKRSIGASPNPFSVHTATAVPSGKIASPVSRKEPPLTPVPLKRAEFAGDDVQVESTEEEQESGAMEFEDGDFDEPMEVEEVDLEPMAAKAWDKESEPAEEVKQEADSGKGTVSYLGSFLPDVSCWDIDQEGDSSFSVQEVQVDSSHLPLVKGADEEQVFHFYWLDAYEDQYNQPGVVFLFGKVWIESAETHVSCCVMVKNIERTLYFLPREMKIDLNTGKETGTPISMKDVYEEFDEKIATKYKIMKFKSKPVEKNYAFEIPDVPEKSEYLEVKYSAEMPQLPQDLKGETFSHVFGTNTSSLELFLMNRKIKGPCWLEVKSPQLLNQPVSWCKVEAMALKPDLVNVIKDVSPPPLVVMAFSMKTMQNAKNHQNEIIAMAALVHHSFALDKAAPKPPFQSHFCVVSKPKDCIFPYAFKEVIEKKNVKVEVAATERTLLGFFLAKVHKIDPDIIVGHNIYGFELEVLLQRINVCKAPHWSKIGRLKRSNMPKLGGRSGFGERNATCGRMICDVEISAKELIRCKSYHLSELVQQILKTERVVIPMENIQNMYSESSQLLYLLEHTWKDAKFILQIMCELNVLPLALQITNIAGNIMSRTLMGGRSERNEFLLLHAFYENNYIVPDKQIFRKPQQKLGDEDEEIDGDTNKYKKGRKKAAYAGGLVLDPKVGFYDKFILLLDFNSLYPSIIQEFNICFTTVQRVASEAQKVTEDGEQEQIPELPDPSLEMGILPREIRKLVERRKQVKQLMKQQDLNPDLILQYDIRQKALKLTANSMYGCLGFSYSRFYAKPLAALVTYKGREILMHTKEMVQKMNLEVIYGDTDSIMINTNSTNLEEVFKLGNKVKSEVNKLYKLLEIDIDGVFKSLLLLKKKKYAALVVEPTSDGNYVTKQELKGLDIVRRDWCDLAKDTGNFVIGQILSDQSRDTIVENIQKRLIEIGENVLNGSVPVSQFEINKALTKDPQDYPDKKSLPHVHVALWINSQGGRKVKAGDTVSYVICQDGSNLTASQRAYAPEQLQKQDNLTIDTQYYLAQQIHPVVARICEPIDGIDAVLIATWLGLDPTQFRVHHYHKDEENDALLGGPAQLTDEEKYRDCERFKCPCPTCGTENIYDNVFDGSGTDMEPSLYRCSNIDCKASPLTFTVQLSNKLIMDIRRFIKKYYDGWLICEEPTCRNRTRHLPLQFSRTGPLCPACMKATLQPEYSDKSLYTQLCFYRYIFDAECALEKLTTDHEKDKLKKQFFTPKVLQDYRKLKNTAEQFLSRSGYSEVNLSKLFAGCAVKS
DNA polymerase γ, sequence (P54098 whole entry, looked up): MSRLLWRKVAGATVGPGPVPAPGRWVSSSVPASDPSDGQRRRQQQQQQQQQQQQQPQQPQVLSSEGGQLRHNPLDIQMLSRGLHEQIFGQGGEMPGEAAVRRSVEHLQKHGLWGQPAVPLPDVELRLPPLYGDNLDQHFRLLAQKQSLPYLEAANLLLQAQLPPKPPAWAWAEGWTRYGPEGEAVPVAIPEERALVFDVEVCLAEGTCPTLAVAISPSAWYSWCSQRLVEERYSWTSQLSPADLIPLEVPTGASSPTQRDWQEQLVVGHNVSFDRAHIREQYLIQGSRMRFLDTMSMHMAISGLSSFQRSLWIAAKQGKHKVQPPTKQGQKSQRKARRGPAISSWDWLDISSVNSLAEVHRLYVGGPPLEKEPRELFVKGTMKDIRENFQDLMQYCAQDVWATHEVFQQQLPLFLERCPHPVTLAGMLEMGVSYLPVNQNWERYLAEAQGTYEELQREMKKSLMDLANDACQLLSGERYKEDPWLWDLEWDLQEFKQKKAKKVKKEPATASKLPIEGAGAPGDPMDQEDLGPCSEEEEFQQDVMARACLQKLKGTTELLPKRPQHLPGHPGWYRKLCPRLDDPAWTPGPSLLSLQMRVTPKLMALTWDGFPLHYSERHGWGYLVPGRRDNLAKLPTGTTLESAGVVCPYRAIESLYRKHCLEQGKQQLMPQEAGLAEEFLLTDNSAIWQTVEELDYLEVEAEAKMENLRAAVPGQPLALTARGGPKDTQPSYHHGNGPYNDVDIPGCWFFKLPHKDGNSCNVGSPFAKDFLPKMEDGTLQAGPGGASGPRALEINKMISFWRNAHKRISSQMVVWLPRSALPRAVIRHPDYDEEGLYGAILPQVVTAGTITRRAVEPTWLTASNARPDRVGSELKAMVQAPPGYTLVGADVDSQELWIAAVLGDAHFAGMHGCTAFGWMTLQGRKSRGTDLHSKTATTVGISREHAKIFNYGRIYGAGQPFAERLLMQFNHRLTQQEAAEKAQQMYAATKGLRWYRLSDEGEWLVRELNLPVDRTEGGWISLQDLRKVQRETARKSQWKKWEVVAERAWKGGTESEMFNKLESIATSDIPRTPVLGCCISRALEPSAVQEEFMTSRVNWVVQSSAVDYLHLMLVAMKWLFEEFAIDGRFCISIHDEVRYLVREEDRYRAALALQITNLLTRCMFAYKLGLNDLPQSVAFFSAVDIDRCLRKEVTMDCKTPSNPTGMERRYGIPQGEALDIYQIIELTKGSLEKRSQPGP
DNA polymerase γ, sequence (Q9UHN1 whole entry partner, looked up): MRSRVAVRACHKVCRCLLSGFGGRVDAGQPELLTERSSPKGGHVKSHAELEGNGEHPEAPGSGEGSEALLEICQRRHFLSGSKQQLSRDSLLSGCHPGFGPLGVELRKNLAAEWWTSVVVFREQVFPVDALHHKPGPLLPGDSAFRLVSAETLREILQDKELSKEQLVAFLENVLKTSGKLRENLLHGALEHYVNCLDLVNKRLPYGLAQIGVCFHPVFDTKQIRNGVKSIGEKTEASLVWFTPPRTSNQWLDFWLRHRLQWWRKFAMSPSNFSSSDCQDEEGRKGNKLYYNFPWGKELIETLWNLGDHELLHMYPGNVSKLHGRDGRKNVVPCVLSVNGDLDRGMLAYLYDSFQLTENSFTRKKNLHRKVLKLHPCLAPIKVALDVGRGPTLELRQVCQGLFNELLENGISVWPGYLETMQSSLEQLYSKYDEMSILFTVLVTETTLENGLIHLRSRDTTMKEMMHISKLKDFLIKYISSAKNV

In the case of “Hemitriethylamine ((2R,3S,5R)-5-(4-amino-5-fluoro-2-oxopyrimidin-1(2H)-yl)-2-ethynyl-3-hydroxytetrahydrothiophen-2-yl)methyl triphosphate [Compound 8]”, the “DNA Pol γ SNIR” value at DNA polymerase γ turned out to be 1.3. Besides, the “DNA Pol α SNIR” value at DNA polymerase α was 2.6. The “Intracellular concentration in PBMC” value in data set [1] (12 hr after intravenous 1 mg/kg compound 7) is 2.19 ± 0.31 µM; in data set [1] (24 hr after intravenous 1 mg/kg compound 7) it was 1.34 ± 0.14 µM; in data set [1] (48 hr after intravenous 1 mg/kg compound 7), 0.42 ± 0.06 µM; in data set [1] (72 hr after intravenous 1 mg/kg compound 7), “BLQ”; in data set [1] (144 hr after intravenous 1 mg/kg compound 7) it was “BLQ”; in data set [1] (168 hr after intravenous 1 mg/kg compound 7) it was “BLQ”. Also, the “Intracellular concentration in PBMC” value in data set [2] (12 hr after oral 7.5 mg/kg compound 7) was determined as 1.43 ± 0.45 µM; in data set [2] (24 hr after oral 7.5 mg/kg compound 7), 1.78 ± 0.57 µM; in data set [2] (48 hr after oral 7.5 mg/kg compound 7) it was 1.15 ± 0.76 µM; in data set [2] (72 hr after oral 7.5 mg/kg compound 7), 0.47 ± 0.22 µM; in data set [2] (120 hr after oral 7.5 mg/kg compound 7), 0.17 ± 0.01 µM; in data set [2] (168 hr after oral 7.5 mg/kg compound 7) it was 0.09 ± 0.02 µM. The “Calculated half life of triphosphate metabolite” value in data set [1] (in PBMC, intravenous 1 mg/kg compound 7) is listed as “Calculated half life of triphosphate metabolite: 19.8 ± 9.3 hours”. Also, the “Calculated half-life of triphosphate metabolite” value in data set [2] (in PBMC, oral 7.5 mg/kg compound 7) is “Calculated half-life of triphosphate metabolite: 43.1 ± 19.3 hours”.

The values above are taken from patent publication US20240226130A1, “4'-THIONUCLEOSIDE ANALOGUES AND THEIR PHARMACEUTICAL USE” (Gilead Sciences, Inc., priority 2022, published 2024).
